Reference: patent publication US12509444B2, “Compounds and methods for CD73 modulation and indications therefor” (Plexxikon Inc., priority 2019, dated 2025)

Tests used:
[1] = target: T1, Human CD73 (amino acid residues 27-549) (Homo sapiens, UniProt P21589); experiment: CD73 enzymatic assay (luciferase-based indirect assay, CellTiter-Glo); assay type: biochemical; conditions: 0.4 nM CD73, 150 μM AMP, 1 hour at room temperature
T1 construct: Human CD73 (amino acid residues 27-549); His tag (N); made in house; host or cells: E. coli
T1 sequence (P21589 27-549): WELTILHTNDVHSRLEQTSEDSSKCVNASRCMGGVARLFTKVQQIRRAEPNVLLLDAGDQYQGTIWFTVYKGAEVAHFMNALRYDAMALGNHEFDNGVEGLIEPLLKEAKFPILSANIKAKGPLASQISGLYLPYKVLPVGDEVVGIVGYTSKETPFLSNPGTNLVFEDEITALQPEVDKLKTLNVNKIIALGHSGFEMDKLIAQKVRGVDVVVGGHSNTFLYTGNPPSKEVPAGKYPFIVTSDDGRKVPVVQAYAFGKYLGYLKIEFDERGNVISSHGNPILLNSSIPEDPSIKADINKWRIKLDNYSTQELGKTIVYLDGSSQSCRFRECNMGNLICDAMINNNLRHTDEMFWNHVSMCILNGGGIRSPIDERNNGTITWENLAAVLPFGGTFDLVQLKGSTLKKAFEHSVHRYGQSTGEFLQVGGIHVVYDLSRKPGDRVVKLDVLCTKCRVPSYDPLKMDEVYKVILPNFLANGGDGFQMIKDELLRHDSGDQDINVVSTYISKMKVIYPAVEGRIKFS
Procedure, shortened: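 His-tagged human CD73 (27-549) from E. coli, 0.4 nM, with 150 μM AMP in 50 mM HEPES pH 7.4, 0.01% Tween 20; 1 h at room temperature. AMP remaining read by CellTiter-Glo 2.0 luminescence with 1 μM final ATP after 30 min. IC50 from nonlinear regression of % inhibition.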

[2] = target: T2, human CD73 (Homo sapiens, UniProt P21589); experiment: Inhibitor activity against CD73 in cell based assay (CD73 expressing CHO-K1 cells); conditions: CHO-K1 cells expressing human CD73, 150 μM AMP, 4 hours of incubation; read-out: CHO-K1 CELL VARIANT: CD73 IC50
T2 construct: expressed in transfected cells
T2 sequence (P21589 27-549): T1 sequence (P21589 27-549)
Procedure, shortened: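 Stably transfected CHO-K1 cells expressing human CD73 (1×10^4/well) incubated 4 h with compound (8-point 1:3 titration, top 10 μM final, 0.2% DMSO) and 150 μM AMP. Residual AMP in supernatant measured by CellTiter-Glo luminescence with 1 μM ATP after 30 min at room temperature; IC50 by nonlinear regression of percent inhibition vs high/low controls.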

IC50 [1] [µM]	IC50 [2] [µM]	SMILES
0.001 to 10	0.001 to 10	O=C(NC1CCN(C(=O)C2CCCC2)CC1)O[C@@H]1CCN(c2cn[nH]c(=O)c2Cl)C1 [P-0377, (R)-1-(5-chloro-6-oxo-1,6-dihydropyridazin-4-yl)pyrrolidin-3-yl (1-(cyclopentanecarbonyl)piperidin-4-yl)carbamate]
0.001 to 10	0.001 to 10	O=C(NC1CCCC1(F)F)O[C@@H]1CCN(c2cn[nH]c(=O)c2Cl)C1 (stereo partly drawn) [P-0386, (R)-1-(5-chloro-6-oxo-1,6-dihydropyridazin-4-yl)pyrrolidin-3-yl (2,2-difluorocyclopentyl)carbamate]
0.001 to 10	0.001 to 10	CC1(C)CCC(NC(=O)O[C@@H]2CCN(c3cn[nH]c(=O)c3Cl)C2)C1 (stereo partly drawn) [P-0387, (R)-1-(5-chloro-6-oxo-1,6-dihydropyridazin-4-yl)pyrrolidin-3-yl (3,3-dimethylcyclopentyl)carbamate]
0.001 to 10	0.001 to 10	O=C(NC1CCN(C(=O)Nc2ccccc2C(F)(F)F)CC1)O[C@@H]1CCN(c2cn[nH]c(=O)c2Cl)C1 [P-0388, (R)-1-(5-chloro-6-oxo-1,6-dihydropyridazin-4-yl)pyrrolidin-3-yl (1-((2-(trifluoromethyl)phenyl)carbamoyl)piperidin-4-yl) carbamate]
0.001 to 10	0.001 to 10	O=C(NC1CCN(C(=O)Nc2cccc(F)c2)CC1)O[C@@H]1CCN(c2cn[nH]c(=O)c2Cl)C1 [P-0391, (R)-1-(5-chloro-6-oxo-1,6-dihydropyridazin-4-yl)pyrrolidin-3-yl (1-((3-fluorophenyl)carbamoyl)piperidin-4-yl)carbamate]
0.001 to 10	0.001 to 10	O=C(N[C@H]1CC[C@H](NS(=O)(=O)c2cnn(C3CCCC3)c2)CC1)O[C@@H]1CCN(c2cn[nH]c(=O)c2Cl)C1 [P-0393, (R)-1-(5-chloro-6-oxo-1,6-dihydropyridazin-4-yl)pyrrolidin-3-yl ((1r,4R)-4-((1-cyclopentyl-1H-pyrazole)-4-sulfonamido)cyclohexyl) carbamate]
0.001 to 10	0.001 to 10	CN([C@H]1CC[C@H](NC(=O)O[C@@H]2CCN(c3cn[nH]c(=O)c3Cl)C2)CC1)S(C)(=O)=O [P-0394, (R)-1-(5-chloro-6-oxo-1,6-dihydropyridazin-4-yl)pyrrolidin-3-yl ((1r,4R)-4-(N-methylmethylsulfonamido)cyclohexyl)carbamate]
0.001 to 10	0.001 to 10	N#Cc1c(N2CC[C@@H](OC(=O)NC3CCCC3)C2)cn[nH]c1=O [P-0395, (R)-1-(5-cyano-6-oxo-1,6-dihydropyridazin-4-yl)pyrrolidin-3-yl cyclopentylcarbamate]
0.001 to 10	0.001 to 10	O=C(NC1CCCC1)O[C@@H]1CCN(c2cnn(CC(O)CO)c(=O)c2Cl)C1 (stereo partly drawn) [P-0397, (3R)-1-(5-chloro-1-(2,3-dihydroxypropyl)-6-oxo-1,6-dihydropyridazin-4-yl)pyrrolidin-3-yl cyclopentylcarbamate]

The remaining lines, values behind:

SMILES	IC50 [1] [µM]	IC50 [2] [µM]
CC(C)(C)C(=O)N1CCC(NC(=O)O[C@@H]2CCN(c3cn[nH]c(=O)c3Cl)C2)CC1 [P-0373, (R)-1-(5-chloro-6-oxo-1,6-dihydropyridazin-4-yl)pyrrolidin-3-yl (1-pivaloylpiperidin-4-yl)carbamate]	0.001 to 10	0.001 to 10
O=C(NC1CCN(C(=O)Cc2ccccc2)CC1)O[C@@H]1CCN(c2cn[nH]c(=O)c2Cl)C1 [P-0374, (R)-1-(5-chloro-6-oxo-1,6-dihydropyridazin-4-yl)pyrrolidin-3-yl (1-(2-phenylacetyl)piperidin-4-yl)carbamate]	0.001 to 10	0.001 to 10
CC(C)CC(=O)N1CCC(NC(=O)O[C@@H]2CCN(c3cn[nH]c(=O)c3Cl)C2)CC1 [P-0375, (R)-1-(5-chloro-6-oxo-1,6-dihydropyridazin-4-yl)pyrrolidin-3-yl (1-(3-methylbutanoyl)piperidin-4-yl)carbamate]	0.001 to 10	0.001 to 10
CCC(=O)N1CCC(NC(=O)O[C@@H]2CCN(c3cn[nH]c(=O)c3Cl)C2)CC1 [P-0376, (R)-1-(5-chloro-6-oxo-1,6-dihydropyridazin-4-yl)pyrrolidin-3-yl (1-propionylpiperidin-4-yl)carbamate]	0.001 to 10	0.001 to 10
CCc1c(N2CC[C@@H](OC(=O)NC3CCC(F)(F)CC3)C2)cn[nH]c1=O [P-0378, (R)-1-(5-ethyl-6-oxo-1,6-dihydropyridazin-4-yl)pyrrolidin-3-yl (4,4-difluorocyclohexyl)carbamate]	0.001 to 10	10 to 100
N#C[C@H]1CCC[C@H]1NC(=O)O[C@@H]1CCN(c2cn[nH]c(=O)c2Cl)C1 [P-0379, (R)-1-(5-chloro-6-oxo-1,6-dihydropyridazin-4-yl)pyrrolidin-3-yl ((1R,2S)-2-cyanocyclopentyl)carbamate]	0.001 to 10	0.001 to 10
N#C[C@@H]1CCC[C@H]1NC(=O)O[C@@H]1CCN(c2cn[nH]c(=O)c2Cl)C1 [P-0380, (R)-1-(5-chloro-6-oxo-1,6-dihydropyridazin-4-yl)pyrrolidin-3-yl ((1R,2R)-2-cyanocyclopentyl)carbamate]	0.001 to 10	0.001 to 10
CC1CCCC1NC(=O)O[C@@H]1CCN(c2cn[nH]c(=O)c2Cl)C1 (stereo partly drawn) [P-0381, (R)-1-(5-chloro-6-oxo-1,6-dihydropyridazin-4-yl)pyrrolidin-3-yl (2-methylcyclopentyl)carbamate]	0.001 to 10	0.001 to 10
COC(=O)C12CCC(NC(=O)O[C@@H]3CCN(c4cn[nH]c(=O)c4Cl)C3)(CC1)C2 [P-0382, methyl (R)-4-((((1-(5-chloro-6-oxo-1,6-dihydropyridazin-4-yl)pyrrolidin-3-yl)oxy)carbonyl)amino)bicyclo[2.2.1]heptane-1-carboxylate]	0.001 to 10	0.001 to 10
O=C(N[C@H]1CCC[C@H]1C(F)(F)F)O[C@@H]1CCN(c2cn[nH]c(=O)c2Cl)C1 [P-0383, (R)-1-(5-chloro-6-oxo-1,6-dihydropyridazin-4-yl)pyrrolidin-3-yl ((1S,2R)-2-(trifluoromethyl)cyclopentyl) carbamate]	0.001 to 10	0.001 to 10
O=C(N[C@@H]1CCC[C@H]1O)O[C@@H]1CCN(c2cn[nH]c(=O)c2Cl)C1 [P-0384, (R)-1-(5-chloro-6-oxo-1,6-dihydropyridazin-4-yl)pyrrolidin-3-yl ((1R,2R)-2-hydroxycyclopentyl)carbamate]	0.001 to 10	0.001 to 10
O=C(NC1CC2CC2C1)O[C@@H]1CCN(c2cn[nH]c(=O)c2Cl)C1 (stereo partly drawn) [P-0385, (R)-1-(5-chloro-6-oxo-1,6-dihydropyridazin-4-yl)pyrrolidin-3-yl bicyclo[3.1.0]hexan-3-ylcarbamate]	0.001 to 10	0.001 to 10
O=C(NC1CCN(C(=O)Nc2ccc(C(F)(F)F)cc2)CC1)O[C@@H]1CCN(c2cn[nH]c(=O)c2Cl)C1 [P-0389, (R)-1-(5-chloro-6-oxo-1,6-dihydropyridazin-4-yl)pyrrolidin-3-yl (1-((4-(trifluoromethyl)phenyl)carbamoyl)piperidin-4-yl) carbamate]	0.001 to 10	0.001 to 10
O=C(NC1CCN(C(=O)Nc2ccccc2F)CC1)O[C@@H]1CCN(c2cn[nH]c(=O)c2Cl)C1 [P-0390, (R)-1-(5-chloro-6-oxo-1,6-dihydropyridazin-4-yl)pyrrolidin-3-yl (1-((2-fluorophenyl)carbamoyl)piperidin-4-yl)carbamate]	0.001 to 10	0.001 to 10
O=C(NC1CCCC1)O[C@@H]1CCN(c2cnn(CCO)c(=O)c2Cl)C1 [P-0392, (R)-1-(5-chloro-1-(2-hydroxyethyl)-6-oxo-1,6-dihydropyridazin-4-yl)pyrrolidin-3-yl cyclopentylcarbamate]	0.001 to 10	0.001 to 10
CCn1cc(S(=O)(=O)N[C@H]2CC[C@H](NC(=O)O[C@@H]3CCN(c4cn[nH]c(=O)c4Cl)C3)CC2)cn1 [P-0396, (R)-1-(5-chloro-6-oxo-1,6-dihydropyridazin-4-yl)pyrrolidin-3-yl ((1r,4R)-4-((1-ethyl-1H-pyrazole)-4-sulfonamido)cyclohexyl) carbamate]	0.001 to 10	0.001 to 10
O=C(NC1CC1)N[C@H]1CC[C@@H](NC(=O)O[C@@H]2CCN(c3cnn(CCO)c(=O)c3Cl)C2)CC1 [P-0398, (R)-1-(5-chloro-1-(2-hydroxyethyl)-6-oxo-1,6-dihydropyridazin-4-yl)pyrrolidin-3-yl ((1s,4S)-4-(3-cyclopropylureido)cyclohexyl) carbamate]	0.001 to 10	0.001 to 10
